Columns and labels:
[1] = biological target: recombinant ROCK2 (amino acids 1-552) (Homo sapiens (Human), UniProt O75116); assay: Z'-lyte kinase assay, ROCK2; assay type: biochemical
Outline: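 Inhibition of recombinant human ROCK2 (residues 1-552, sourced from ThermoFisher Scientific) was assessed in vitro with the Z'-lyte kinase kit. Kinase activity with compound was normalized to DMSO control to give percent inhibition. IC50s came from 9-point 2-fold serial dilutions fitted by nonlinear regression in GraphPad Prism.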

[2] = system: human oligodendrocyte/neuron progenitor cells; assay: Neurite outgrowth and differentiation of human oligodendrocyte/neuron progenitors; assay type: cell-based
Procedure: Thawing and proliferation of human oligodendrocyte/neuron progenitor cells (OPCs). Cryopreserved human oligodendrocyte/neuron progenitors (Millipore Cat. No. CS204496) were recovered and cultured on maltrigel (BD Cat. No. 356324) coated T-25 flask in expansion media containing OPC/neuron basal medium, N21 medium supplement, recombinant human bFGF, PDGF-AA and NT-3. When cells reached 80% confluent, 3 ml of Accutase was applied (Millipore SCR005) to passage cells at 1:4 ratio. Sub-cultured cells were maintained in expansion media for proliferation.
Spontaneous differentiation of human oligodendrocyte/neuron progenitors in 24-well and 96-well plates. Coat plate with 10 μg/ml poly-L-ornithine (Sigma Cat. No. P4957) overnight at room temperature. Remove the poly-L-ornithine solution and rinse the plate with 1×PBS, add 10 μg/ml laminin (Millipore Cat. No. CC095) and incubate at 37° C. for at least 2 hours. Seed cells on the coated plates in expansion media and allowed to attach overnight. The next day expansion media was removed and replaced with freshly prepared spontaneous differentiation media only containing OPC/neuron basal media and N21 media supplement. For 14 day culture, differentiation media was replaced every 3-4 days. Cells were imaged and neurite length was analyzed by IncuCyte S3 Live Cell Analysis System every 4 hours. After 14 days of differentiation, cells were fixed by 4% paraformaldehyde and stained with DAPI and Neuron-specific ß-III tubulin antibody (R&D systems, NL1195R).

[3] = system: human oligodendrocyte/neuron progenitor cells; assay: Aβ 1-42 induced cell death assay on human oligodendrocyte/neuron progenitors; assay type: cell-based; conditions: 3 μM, 10.5 μM Aβ1-42, 24 hour
Procedure: Aβ 1-42 induced cell death assay on human oligodendrocyte/neuron progenitors in 96-well plate. Cells were seeded on poly-L-ornithine and laminin coated plates at a density of 8,000 cells per well and maintained in expansion media until Day 3, then media was replaced with fresh spontaneous differentiation media containing testing compounds and IncuCyte Annexin V Red Reagent (1:200 dilution) (Essen BioScience Cat. No. 4641). After the pre-incubation period of 30 minutes at 37° C., 10.5 μM Aβ 1-42 (Bachem Product No. H-8146) was added directly in the pretreatment solution. Neurite length and total Annexin V positive area were analyzed by IncuCyte S3 Live Cell Analysis System every 2 hours.
In addition to promoting neuroregeneration, ROCK inhibitors have been reported to exert neuroprotective effects and prolong neuronal survival. Here we test the neuroprotective effect of ROCK inhibitors against Aβ1-42. Human oligodendrocyte/neuron progenitor cells were pre-incubated with ROCK inhibitors for 30 minutes before exposing to 10.5 μM Aβ1-42. IncuCyte Annexin V Red Reagent was added to culture media to label cell apoptosis. Pictures were taken by IncuCyte S3 and total Annexin V positive area was analyzed by IncuCyte S3 base software. Neurite length was quantified by IncuCyte NeuroTrack Software Module, see FIGS. 3b and 3c.

[4] = biological target: recombinant ROCK1 (amino acids 1-535) (Homo sapiens (Human), UniProt Q13464); assay: Z'-lyte kinase assay, ROCK1; assay type: biochemical; conditions: @ 0.5 μM; read-out: ROCK1 % inh (0.5 μM)
Procedure: Determination of compounds ROCK inhibitory activity in vitro (Z'lyte assay): recombinant ROCK1 (amino acids 1-535) and ROCK2 (amino acids 1-552) proteins were purchased from ThermoFisher Scientific. Compounds activities were measured by Z'-lyte kinase kit (ThermoFisher Scientific) and IC50s were calculated.
Compounds activities were measured by Z'-lyte kinase kit (ThermoFisher Scientific). […] IC50s were calculated using the GraphPad Prism software with kinase activities data that were collected from 9 points serial dilution of compounds treatment. The ROCK inhibition in A7R5 cells and NIH3T3 (Acta2-Luc) cells was performed as described above.
The percent inhibition rate was calculated by normalizing the kinase activity value obtained with compound treatment against DMSO control value and then applied to the equation, […]. IC50's were calculated using the nonlinear regression curve fit function of the GraphPad Prism software with kinase activities data measured with 9 points 2-fold serial dilution of compounds treatment.

[5] = system: ACTA2-promoter-driven-luciferase in NIH3T3 cells; assay: NIH3T3 Acta2-promoter driven-luciferase assay; assay type: cell-based; conditions: Mus musculus, plus TGFβ1, 24 hr, read-out: NIH3T3, Acta2-luc, IC50
Outline: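 Stable NIH3T3 line carrying luciferase reporter under human ACTA2 promoter (−1000-1 bp); confluent cells given 9-point compound dilutions with TGFβ1 for 24 hr. Lysed cells read for luciferase; IC50 from nonlinear regression fit.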

[6] = system: human oligodendrocyte/neuron progenitor cells; assay: Chondroitin Sulfate Proteoglycan (CSPG) assay on human oligodendrocyte/neuron progenitors; assay type: cell-based; conditions: 1 μM and 3 μM, 72 hour
Procedure: Chondroitin Sulfate Proteoglycan (CSPG) assay on human oligodendrocyte/neuron progenitors in 96-well plate. […] Cells were seeded on the coated plates at a density of 6,000 cells per well in expansion media. The following day the expansion media was replaced with fresh spontaneous differentiation media containing testing compounds. Cells were imaged and neurite length was analyzed by IncuCyte S3 Live Cell Analysis System every 4 hours.

[7] = system: ppMlc (T18/S19) levels in A7R5 cells; assay: A7R5 in-cell ELISA assay (ppMlc); assay type: cell-based, rat; conditions: Rattus norvegicus, A7R5, A7R5 cells, Table 2; read-out: pMLC IC50 (nM) A7R5
Outline: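 Rat aortic smooth muscle A7R5 cells in DMEM with 10% FBS, seeded 24 h, then treated 90 min with 9-point 2-fold compound dilutions. ppMlc (T18/S19) measured by colorimetric in-cell ELISA; cellular IC50 from nonlinear regression curve fit.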

sAPPβ = conditions: direct injection into hippocampus; cited from earlier work
[8] = cited from earlier work

Chain of recombinant ROCK2 (amino acids 1-552) (O75116 1-552): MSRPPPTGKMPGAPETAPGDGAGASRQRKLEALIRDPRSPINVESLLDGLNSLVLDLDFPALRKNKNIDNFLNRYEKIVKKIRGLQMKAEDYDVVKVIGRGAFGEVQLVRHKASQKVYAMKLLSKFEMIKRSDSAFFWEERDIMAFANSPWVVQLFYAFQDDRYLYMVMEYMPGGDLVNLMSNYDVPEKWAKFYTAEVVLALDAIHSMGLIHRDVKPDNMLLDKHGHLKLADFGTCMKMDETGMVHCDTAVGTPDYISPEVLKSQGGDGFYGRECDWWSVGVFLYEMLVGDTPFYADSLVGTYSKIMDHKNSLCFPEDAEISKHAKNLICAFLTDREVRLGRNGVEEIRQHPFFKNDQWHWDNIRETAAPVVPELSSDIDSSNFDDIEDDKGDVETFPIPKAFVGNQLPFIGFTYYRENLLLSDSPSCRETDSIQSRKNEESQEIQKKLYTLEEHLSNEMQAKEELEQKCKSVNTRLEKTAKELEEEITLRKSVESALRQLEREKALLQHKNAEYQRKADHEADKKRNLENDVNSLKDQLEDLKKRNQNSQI
Chain of recombinant ROCK1 (amino acids 1-535) (Q13464 1-535): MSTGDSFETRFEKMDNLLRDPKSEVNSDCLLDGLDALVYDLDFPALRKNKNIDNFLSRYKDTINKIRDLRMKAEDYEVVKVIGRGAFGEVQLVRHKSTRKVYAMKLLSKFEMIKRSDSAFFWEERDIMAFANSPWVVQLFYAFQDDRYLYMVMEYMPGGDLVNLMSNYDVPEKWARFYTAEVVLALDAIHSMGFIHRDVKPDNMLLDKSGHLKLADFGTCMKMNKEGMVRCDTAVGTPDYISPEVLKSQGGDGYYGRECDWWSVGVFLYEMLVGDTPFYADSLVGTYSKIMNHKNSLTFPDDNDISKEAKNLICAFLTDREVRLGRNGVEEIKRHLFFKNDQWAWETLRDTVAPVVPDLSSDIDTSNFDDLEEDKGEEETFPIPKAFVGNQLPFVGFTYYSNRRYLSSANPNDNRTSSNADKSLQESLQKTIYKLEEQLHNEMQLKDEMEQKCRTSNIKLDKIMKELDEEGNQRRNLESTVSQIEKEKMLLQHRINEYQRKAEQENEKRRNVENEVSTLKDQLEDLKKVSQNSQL

Row | SMILES | IC50 [1] | inhibition at 0.5 µM ([1]; @ 0.5 μM, read-out: ROCK2 % inh (0.5 μM)) | neuronal differentiation and maturation ([2]; 14 days culture, Beta III tubulin) | neurite length ([2]; various concentrations, 3 days culture) | Aβ1-42 induced cell death (Annexin V area) [3] | neurite outgrowth in the presence of Aβ1-42 [3] | inhibition at 0.5 µM [4] | IC50 [5] | CSPG mediated neurite outgrowth arrest [6] | IC50 [7] | sAPPβ (sAPPβ) | brain penetration ([8]; in vivo) | half-life ([8]; oral PK) | oral bioavailability (F) ([8]; oral)
1 | CNC(C(=O)Nc1ccc(-c2cn[nH]c2)cc1)c1ccc(Cl)cc1 (centres unmarked) [Example 17, N-(4-(1H-pyrazol-4-yl)phenyl)-2-(4-chlorophenyl)-2-(methylamino)acetamide] | 0.0063 µM | 98% | facility neuronal differentiation and maturation | significantly increase neurite length | significantly protect | promoted neurite outgrowth | 99% | 0.108 µM | significantly counteract | 60 nM | – | – | – | –
2 | CN(C)CCOc1cc(-c2cn[nH]c2)ccc1NC(=O)C1COc2ccccc2O1 (centres unmarked) [SR3677] | – | – | – | – | – | – | – | – | – | – | lowering sAPPβ | lack of brain penetration | < 1 h | 5%

From US11479533B2, “Inhibitors of Rho associated coiled-coil containing protein kinase” (KADMON CORPORATION, LLC, priority 2017, dated 2022)
